IC50 and Nav1.4/Nav1.7 data for seven compounds are collected here from patent publication US10344060B2 (priority 2013, dated 2019).

One experiment deals with hNav1.4 (Homo sapiens, UniProt P35499). The experiment can be described thus: cell-based. The experiment is classed as cell-based. To be noted: Table 12; for IC50: PatchXpress, tonic block, read-out: PX hNav1.4 Tonic IC50; for Nav1.4/Nav1.7: ratio of PX tonic IC50 values.
Another experiment has as its target hNav1.7 (Homo sapiens, UniProt Q15858). Briefly: cell-based. The format is cell-based. The note with it: Table 12; PatchXpress, tonic block; read-out: PX hNav1.7 Tonic IC50.

Usually IC50 stands for the midpoint of a concentration-inhibition curve.

hNav1.4, sequence (P35499 whole entry): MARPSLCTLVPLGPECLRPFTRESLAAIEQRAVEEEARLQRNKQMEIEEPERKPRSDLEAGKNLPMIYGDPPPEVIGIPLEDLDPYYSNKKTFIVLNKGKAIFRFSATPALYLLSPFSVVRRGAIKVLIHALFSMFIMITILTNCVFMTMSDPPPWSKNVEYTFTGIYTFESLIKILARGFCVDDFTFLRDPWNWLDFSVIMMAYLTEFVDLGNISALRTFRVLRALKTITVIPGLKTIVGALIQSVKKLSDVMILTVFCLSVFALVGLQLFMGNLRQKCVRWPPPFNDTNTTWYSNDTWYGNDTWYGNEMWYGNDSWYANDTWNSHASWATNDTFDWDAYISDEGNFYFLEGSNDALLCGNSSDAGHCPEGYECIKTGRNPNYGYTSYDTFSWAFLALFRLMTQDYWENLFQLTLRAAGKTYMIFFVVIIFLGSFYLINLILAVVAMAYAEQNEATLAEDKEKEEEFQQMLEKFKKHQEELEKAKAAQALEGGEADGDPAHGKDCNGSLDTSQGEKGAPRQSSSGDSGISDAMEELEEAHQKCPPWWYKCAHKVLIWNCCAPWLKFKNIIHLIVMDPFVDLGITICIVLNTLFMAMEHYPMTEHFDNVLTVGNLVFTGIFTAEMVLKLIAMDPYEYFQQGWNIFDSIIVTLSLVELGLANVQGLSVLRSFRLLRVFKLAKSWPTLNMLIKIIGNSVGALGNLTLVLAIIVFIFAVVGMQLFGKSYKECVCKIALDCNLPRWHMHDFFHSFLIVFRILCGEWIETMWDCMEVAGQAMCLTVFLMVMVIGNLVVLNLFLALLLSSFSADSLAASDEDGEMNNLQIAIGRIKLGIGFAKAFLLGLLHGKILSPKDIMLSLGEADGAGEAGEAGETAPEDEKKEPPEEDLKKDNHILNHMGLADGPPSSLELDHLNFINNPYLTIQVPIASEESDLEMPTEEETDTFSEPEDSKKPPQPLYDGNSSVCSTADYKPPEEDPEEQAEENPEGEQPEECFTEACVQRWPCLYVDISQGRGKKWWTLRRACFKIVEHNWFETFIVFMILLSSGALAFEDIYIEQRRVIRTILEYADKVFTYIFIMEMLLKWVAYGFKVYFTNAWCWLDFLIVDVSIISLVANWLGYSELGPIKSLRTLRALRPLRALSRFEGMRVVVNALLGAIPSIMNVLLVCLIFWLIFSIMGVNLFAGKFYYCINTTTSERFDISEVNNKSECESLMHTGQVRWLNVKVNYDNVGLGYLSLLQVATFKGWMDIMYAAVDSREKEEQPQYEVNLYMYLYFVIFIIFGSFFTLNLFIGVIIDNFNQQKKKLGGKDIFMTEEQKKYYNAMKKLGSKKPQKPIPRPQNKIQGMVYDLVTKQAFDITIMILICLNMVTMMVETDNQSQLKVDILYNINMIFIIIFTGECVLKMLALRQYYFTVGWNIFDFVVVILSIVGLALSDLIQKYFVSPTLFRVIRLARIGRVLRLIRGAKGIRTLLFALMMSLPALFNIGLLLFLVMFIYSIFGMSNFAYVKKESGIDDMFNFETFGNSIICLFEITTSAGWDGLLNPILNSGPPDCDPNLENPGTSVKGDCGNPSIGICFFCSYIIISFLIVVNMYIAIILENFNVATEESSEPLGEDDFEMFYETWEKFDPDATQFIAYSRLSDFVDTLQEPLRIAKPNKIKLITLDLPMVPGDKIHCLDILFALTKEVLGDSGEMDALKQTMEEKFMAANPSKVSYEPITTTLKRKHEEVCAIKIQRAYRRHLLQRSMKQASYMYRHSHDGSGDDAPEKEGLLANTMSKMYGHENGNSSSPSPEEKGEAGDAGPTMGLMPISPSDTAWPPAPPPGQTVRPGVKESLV
hNav1.7, sequence (Q15858 whole entry): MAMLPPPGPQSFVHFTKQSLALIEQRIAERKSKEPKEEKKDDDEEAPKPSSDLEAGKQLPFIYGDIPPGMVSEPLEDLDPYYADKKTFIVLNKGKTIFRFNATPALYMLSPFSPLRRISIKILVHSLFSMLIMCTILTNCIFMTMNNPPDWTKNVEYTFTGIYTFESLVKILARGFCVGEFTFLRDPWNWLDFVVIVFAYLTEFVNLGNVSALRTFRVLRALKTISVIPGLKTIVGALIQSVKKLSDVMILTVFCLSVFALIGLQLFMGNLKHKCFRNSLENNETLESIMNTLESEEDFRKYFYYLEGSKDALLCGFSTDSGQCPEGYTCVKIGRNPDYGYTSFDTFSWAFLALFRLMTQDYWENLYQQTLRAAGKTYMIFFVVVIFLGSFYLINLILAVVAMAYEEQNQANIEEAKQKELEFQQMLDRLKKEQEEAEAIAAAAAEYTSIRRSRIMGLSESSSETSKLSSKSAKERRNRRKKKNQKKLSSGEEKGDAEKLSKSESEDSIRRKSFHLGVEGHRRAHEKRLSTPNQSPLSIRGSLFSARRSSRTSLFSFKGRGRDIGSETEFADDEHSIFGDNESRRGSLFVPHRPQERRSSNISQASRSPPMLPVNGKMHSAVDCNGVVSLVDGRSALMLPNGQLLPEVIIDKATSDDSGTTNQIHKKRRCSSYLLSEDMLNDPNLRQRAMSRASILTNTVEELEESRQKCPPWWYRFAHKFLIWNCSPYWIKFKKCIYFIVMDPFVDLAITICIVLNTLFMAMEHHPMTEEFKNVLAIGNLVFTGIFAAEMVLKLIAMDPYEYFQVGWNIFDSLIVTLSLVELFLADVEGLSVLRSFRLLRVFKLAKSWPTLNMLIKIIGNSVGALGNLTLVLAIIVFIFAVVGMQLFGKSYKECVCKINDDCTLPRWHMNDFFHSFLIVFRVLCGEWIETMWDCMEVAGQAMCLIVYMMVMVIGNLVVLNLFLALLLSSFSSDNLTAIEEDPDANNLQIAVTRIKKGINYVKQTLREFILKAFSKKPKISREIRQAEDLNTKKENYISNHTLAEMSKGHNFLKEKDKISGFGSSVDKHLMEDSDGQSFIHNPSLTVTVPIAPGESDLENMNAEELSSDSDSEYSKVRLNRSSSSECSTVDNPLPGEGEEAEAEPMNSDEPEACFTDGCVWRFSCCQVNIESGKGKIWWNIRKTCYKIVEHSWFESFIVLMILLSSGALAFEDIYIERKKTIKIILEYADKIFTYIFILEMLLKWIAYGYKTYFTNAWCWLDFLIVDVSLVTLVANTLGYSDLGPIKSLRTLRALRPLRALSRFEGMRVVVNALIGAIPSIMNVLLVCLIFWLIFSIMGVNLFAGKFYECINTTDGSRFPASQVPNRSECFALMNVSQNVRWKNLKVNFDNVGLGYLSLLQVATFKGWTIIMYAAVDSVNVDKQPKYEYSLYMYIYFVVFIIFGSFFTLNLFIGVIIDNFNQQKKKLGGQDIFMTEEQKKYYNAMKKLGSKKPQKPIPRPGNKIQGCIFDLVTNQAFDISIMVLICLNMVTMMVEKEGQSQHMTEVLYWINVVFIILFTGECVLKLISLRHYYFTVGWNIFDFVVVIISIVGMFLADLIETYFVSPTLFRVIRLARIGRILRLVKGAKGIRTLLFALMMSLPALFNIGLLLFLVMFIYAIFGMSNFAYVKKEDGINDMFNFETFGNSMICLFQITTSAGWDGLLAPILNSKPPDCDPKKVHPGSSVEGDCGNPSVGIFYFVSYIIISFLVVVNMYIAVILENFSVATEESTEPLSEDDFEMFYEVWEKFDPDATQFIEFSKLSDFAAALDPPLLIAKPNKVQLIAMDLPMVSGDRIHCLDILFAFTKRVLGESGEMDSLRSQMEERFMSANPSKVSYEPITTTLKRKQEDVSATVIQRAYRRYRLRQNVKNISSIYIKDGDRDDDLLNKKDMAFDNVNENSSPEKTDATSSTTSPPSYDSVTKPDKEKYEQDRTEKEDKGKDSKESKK

`C#CC[C@H](N)C(=O)N[C@@H](Cc1ccc(O)cc1)C(=O)N[C@H]1CSSC[C@@H]2NC(=O)[C@@H]3CSSC[C@@H](C(=O)N[C@@H](CCCNC(=N)N)C(=O)N[C@@H](CCCCN)C(=O)N[C@@H](CCC(=O)O)C(=O)N[C@H](C(=O)NCC(=O)O)[C@@H](C)CC)NC(=O)[C@H](Cc4c[nH]c5ccccc45)NC(=O)[C@H](CC(C)C)NC(=O)[C@H](CCCCN)NC(=O)[C@H](CSSC[C@H](NC(=O)[C@H]([C@@H](C)O)NC(=O)[C@H](Cc4c[nH]c5ccccc45)NC(=O)[C@H](CCCC)NC(=O)[C@H](Cc4c[nH]c5ccccc45)NC(=O)[C@H](CCCCN)NC(=O)[C@H](CCC(N)=O)NC1=O)C(=O)N[C@@H](CC(=O)O)C(=O)N[C@@H](CO)C(=O)N[C@@H](CCCCN)C(=O)N[C@@H](CCCNC(=N)N)C(=O)N[C@@H](C)C(=O)N3)NC(=O)[C@H](CCCNC(=N)N)NC(=O)[C@H](CC(C)C)NC(=O)CNC(=O)[C@H](CCC(=O)O)NC2=O` [compound 828]: on hNav1.4, the IC50 amounted to 1760 nM and the Nav1.4/Nav1.7 is on record as 211. The IC50 on hNav1.7 came to 8.34 nM.
Take `C#CC[C@H](N)C(=O)N[C@@H](Cc1ccc(O)cc1)C(=O)N[C@H]1C[Se][Se]C[C@@H]2NC(=O)[C@@H]3CSSC[C@@H](C(=O)N[C@@H](CCCNC(=N)N)C(=O)N[C@@H](CCCCN)C(=O)N[C@@H](CCC(=O)O)C(=O)N[C@H](C(N)=O)[C@@H](C)CC)NC(=O)[C@H](Cc4c[nH]c5ccccc45)NC(=O)[C@H](CC(C)C)NC(=O)[C@H](CCCCN)NC(=O)[C@H](CSSC[C@H](NC(=O)[C@H]([C@@H](C)O)NC(=O)[C@H](Cc4c[nH]c5ccccc45)NC(=O)[C@H](CCCC)NC(=O)[C@H](Cc4c[nH]c5ccccc45)NC(=O)[C@H](CCCCN)NC(=O)[C@H](CCC(N)=O)NC1=O)C(=O)N[C@@H](CC(=O)O)C(=O)N[C@@H](CO)C(=O)N[C@@H](CCCCN)C(=O)N[C@@H](CCCNC(=N)N)C(=O)N[C@@H](C)C(=O)N3)NC(=O)[C@H](CCCNC(=N)N)NC(=O)[C@H](CC(C)C)NC(=O)CNC(=O)[C@H](CCC(=O)O)NC2=O` [compound 838]: the 50% inhibitory concentration (IC50) on hNav1.4 was 58.1 nM; at hNav1.7 it was 0.949 nM. Besides, the Nav1.4/Nav1.7 at hNav1.4 is 61.
Consider `C#CC[C@H](N)C(=O)N[C@@H](Cc1ccc(O)cc1)C(=O)N[C@H]1CSSC[C@@H]2NC(=O)[C@@H]3CSSC[C@@H](C(=O)N[C@@H](CCCNC(=N)N)C(=O)N[C@@H](CCCCN)C(=O)N[C@@H](CCC(=O)O)C(=O)N[C@H](C(N)=O)[C@@H](C)CC)NC(=O)[C@H](Cc4c[nH]c5ccccc45)NC(=O)[C@H](CC(C)C)NC(=O)[C@H](CCCCN)NC(=O)[C@H](CSSC[C@H](NC(=O)[C@H]([C@@H](C)O)NC(=O)[C@H](Cc4ccccc4)NC(=O)[C@H](CCCC)NC(=O)[C@H](Cc4c[nH]c5ccccc45)NC(=O)[C@H](CCCCN)NC(=O)[C@H](CCC(N)=O)NC1=O)C(=O)N[C@@H](CC(=O)O)C(=O)N[C@@H](CO)C(=O)N[C@@H](CCCCN)C(=O)N[C@@H](CCCNC(=N)N)C(=O)N[C@@H](C)C(=O)N3)NC(=O)[C@H](CCCNC(=N)N)NC(=O)[C@H](CC(C)C)NC(=O)CNC(=O)[C@H](CCC(=O)O)NC2=O` [compound 848], for which the results for the IC50 on hNav1.4 and on hNav1.7 were 1010 nM and 12.6 nM, respectively. Also, the Nav1.4/Nav1.7 at hNav1.4 is reported as 80.
For `C#CC[C@H](N)C(=O)N[C@@H](Cc1ccc(O)cc1)C(=O)N[C@H]1CSSC[C@@H]2NC(=O)[C@@H]3CSSC[C@@H](C(=O)N[C@@H](CCCNC(=N)N)C(=O)N[C@@H](CCCCN)C(=O)N[C@@H](CCC(=O)O)C(=O)N[C@H](C(N)=O)[C@@H](C)CC)NC(=O)[C@H](Cc4c[nH]c5ccccc45)NC(=O)[C@H]([C@@H](C)CC)NC(=O)[C@H](CCCCN)NC(=O)[C@H](CSSC[C@H](NC(=O)[C@H]([C@@H](C)O)NC(=O)[C@H](Cc4c[nH]c5ccccc45)NC(=O)[C@H](CCCC)NC(=O)[C@H](Cc4c[nH]c5ccccc45)NC(=O)[C@H](CCCCN)NC(=O)[C@H](CCC(N)=O)NC1=O)C(=O)N[C@@H](CC(=O)O)C(=O)N[C@@H](CO)C(=O)N[C@@H](CCCCN)C(=O)N[C@@H](CCCNC(=N)N)C(=O)N[C@@H](C)C(=O)N3)NC(=O)[C@H](CCCNC(=N)N)NC(=O)[C@H](CC(C)C)NC(=O)CNC(=O)[C@H](CCC(=O)O)NC2=O` [compound 855] the same measures were 193 nM, 1.06 nM and 182.
With `C#CC[C@H](N)C(=O)N[C@@H](Cc1ccc(O)cc1)C(=O)N[C@H]1CSSC[C@@H]2NC(=O)[C@@H]3CSSC[C@@H](C(=O)N[C@@H](CCCNC(=N)N)C(=O)N[C@@H](CCCCN)C(=O)N[C@@H](CCC(=O)O)C(=O)N[C@H](C(N)=O)[C@@H](C)CC)NC(=O)[C@H](Cc4c[nH]c5ccccc45)NC(=O)[C@H](CCCC)NC(=O)[C@H](CCCCN)NC(=O)[C@H](CSSC[C@H](NC(=O)[C@H]([C@@H](C)O)NC(=O)[C@H](Cc4c[nH]c5ccccc45)NC(=O)[C@H](CCCC)NC(=O)[C@H](Cc4c[nH]c5ccccc45)NC(=O)[C@H](CCCCN)NC(=O)[C@H](CCC(N)=O)NC1=O)C(=O)N[C@@H](CC(=O)O)C(=O)N[C@@H](CO)C(=O)N[C@@H](CCCCN)C(=O)N[C@@H](CCCNC(=N)N)C(=O)N[C@@H](C)C(=O)N3)NC(=O)[C@H](CCCNC(=N)N)NC(=O)[C@H](CC(C)C)NC(=O)CNC(=O)[C@H](CCC(=O)O)NC2=O` [compound 856], at hNav1.4, the concentration for half-maximal inhibition (IC50) is 102 nM and the Nav1.4/Nav1.7 was 59. On hNav1.7, the 50% inhibitory concentration (IC50) worked out at 1.72 nM.
Consider `C#CC[C@H](N)C(=O)N[C@@H](Cc1ccc(O)cc1)C(=O)N[C@H]1CSSC[C@@H]2NC(=O)[C@@H]3CSSC[C@@H](C(=O)N[C@@H](CCCNC(=N)N)C(=O)N[C@@H](CCCCN)C(=O)N[C@@H](CCC(=O)O)C(=O)N[C@H](C(N)=O)[C@@H](C)CC)NC(=O)[C@H](Cc4c[nH]c5ccccc45)NC(=O)[C@H](C4CCCCC4)NC(=O)[C@H](CCCCN)NC(=O)[C@H](CSSC[C@H](NC(=O)[C@H]([C@@H](C)O)NC(=O)[C@H](Cc4c[nH]c5ccccc45)NC(=O)[C@H](CCCC)NC(=O)[C@H](Cc4c[nH]c5ccccc45)NC(=O)[C@H](CCCCN)NC(=O)[C@H](CCC(N)=O)NC1=O)C(=O)N[C@@H](CC(=O)O)C(=O)N[C@@H](CO)C(=O)N[C@@H](CCCCN)C(=O)N[C@@H](CCCNC(=N)N)C(=O)N[C@@H](C)C(=O)N3)NC(=O)[C@H](CCCNC(=N)N)NC(=O)[C@H](CC(C)C)NC(=O)CNC(=O)[C@H](CCC(=O)O)NC2=O` [compound 859], for which the figures for the IC50 at hNav1.4 and at hNav1.7 were 177 nM and 0.489 nM, respectively. On hNav1.4, the Nav1.4/Nav1.7 came to 361.
Consider `C#CC[C@H](N)C(=O)N[C@@H](Cc1ccc(O)cc1)C(=O)N[C@H]1CSSC[C@@H]2NC(=O)[C@@H]3CSSC[C@@H](C(=O)N[C@@H](CCCNC(=N)N)C(=O)N[C@@H](CCCCN)C(=O)N[C@@H](CCC(=O)O)C(=O)N[C@H](C(N)=O)[C@@H](C)CC)NC(=O)[C@H](Cc4c[nH]c5ccccc45)NC(=O)[C@H](CC4CCCCC4)NC(=O)[C@H](CCCCN)NC(=O)[C@H](CSSC[C@H](NC(=O)[C@H]([C@@H](C)O)NC(=O)[C@H](Cc4c[nH]c5ccccc45)NC(=O)[C@H](CCCC)NC(=O)[C@H](Cc4c[nH]c5ccccc45)NC(=O)[C@H](CCCCN)NC(=O)[C@H](CCC(N)=O)NC1=O)C(=O)N[C@@H](CC(=O)O)C(=O)N[C@@H](CO)C(=O)N[C@@H](CCCCN)C(=O)N[C@@H](CCCNC(=N)N)C(=O)N[C@@H](C)C(=O)N3)NC(=O)[C@H](CCCNC(=N)N)NC(=O)[C@H](CC(C)C)NC(=O)CNC(=O)[C@H](CCC(=O)O)NC2=O` [compound 860], for which, on hNav1.4, the IC50 was 117 nM and the Nav1.4/Nav1.7 is listed as 73. Also, the IC50 on hNav1.7 amounted to 1.61 nM.
